According to ChEMBL document CHEMBL5365423, “6-Azaspiro[2.5]octanes as small molecule agonists of the human glucagon-like peptide-1 receptor” (Bioorg Med Chem Lett, 2023):

Tests used:
[1] = Intrinsic clearance in human hepatocytes measured per million cells; assay type: ADME, cell-based, Hepatocyte; conditions: read-out: CLH
[2] = target: T1, Glucagon-like peptide 1 receptor (Homo sapiens, UniProt P43220); experiment: Displacement of [125I]-GLP1 from GLP-1 receptor (unknown origin) expressed in CHO cells membrane pre-incubated for 10 mins followed by [125I]-GLP1 addition and measured after 180 mins by microbeta scintillation counting method; assay type: cell membranes
T1 sequence (P43220 whole entry): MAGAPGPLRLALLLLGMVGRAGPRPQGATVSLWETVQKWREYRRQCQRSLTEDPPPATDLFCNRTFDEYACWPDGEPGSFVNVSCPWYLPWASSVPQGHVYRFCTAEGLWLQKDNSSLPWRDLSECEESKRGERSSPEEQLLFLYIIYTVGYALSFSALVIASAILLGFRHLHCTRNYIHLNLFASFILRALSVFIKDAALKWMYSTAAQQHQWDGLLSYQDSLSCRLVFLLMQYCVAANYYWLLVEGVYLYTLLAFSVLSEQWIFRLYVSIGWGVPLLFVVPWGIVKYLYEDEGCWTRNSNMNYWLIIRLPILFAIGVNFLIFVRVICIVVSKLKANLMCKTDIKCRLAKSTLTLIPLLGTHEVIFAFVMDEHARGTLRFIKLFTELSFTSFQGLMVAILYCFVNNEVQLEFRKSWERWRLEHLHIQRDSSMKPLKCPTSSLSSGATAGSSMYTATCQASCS

[3] = Apparent permeability in MDCK cells by LC-MS/MS analysis; assay type: ADME, cell-based, Canis lupus familiaris; conditions: dog
[4] = target: T1, Glucagon-like peptide 1 receptor; experiment: Agonist activity at GLP-1 receptor (unknown origin) expressed in CHO cells at 20 uM in presence of BETP by cAMP assay relative to control; assay type: functional, cell-based; conditions: filed as agonist
[5] = target: Voltage-gated inwardly rectifying potassium channel KCNH2 (Homo sapiens, UniProt Q12809); experiment: Inhibition of human ERG dofetilide binding assay; assay type: toxicity
Chain of Voltage-gated inwardly rectifying potassium channel KCNH2 (Q12809 whole entry): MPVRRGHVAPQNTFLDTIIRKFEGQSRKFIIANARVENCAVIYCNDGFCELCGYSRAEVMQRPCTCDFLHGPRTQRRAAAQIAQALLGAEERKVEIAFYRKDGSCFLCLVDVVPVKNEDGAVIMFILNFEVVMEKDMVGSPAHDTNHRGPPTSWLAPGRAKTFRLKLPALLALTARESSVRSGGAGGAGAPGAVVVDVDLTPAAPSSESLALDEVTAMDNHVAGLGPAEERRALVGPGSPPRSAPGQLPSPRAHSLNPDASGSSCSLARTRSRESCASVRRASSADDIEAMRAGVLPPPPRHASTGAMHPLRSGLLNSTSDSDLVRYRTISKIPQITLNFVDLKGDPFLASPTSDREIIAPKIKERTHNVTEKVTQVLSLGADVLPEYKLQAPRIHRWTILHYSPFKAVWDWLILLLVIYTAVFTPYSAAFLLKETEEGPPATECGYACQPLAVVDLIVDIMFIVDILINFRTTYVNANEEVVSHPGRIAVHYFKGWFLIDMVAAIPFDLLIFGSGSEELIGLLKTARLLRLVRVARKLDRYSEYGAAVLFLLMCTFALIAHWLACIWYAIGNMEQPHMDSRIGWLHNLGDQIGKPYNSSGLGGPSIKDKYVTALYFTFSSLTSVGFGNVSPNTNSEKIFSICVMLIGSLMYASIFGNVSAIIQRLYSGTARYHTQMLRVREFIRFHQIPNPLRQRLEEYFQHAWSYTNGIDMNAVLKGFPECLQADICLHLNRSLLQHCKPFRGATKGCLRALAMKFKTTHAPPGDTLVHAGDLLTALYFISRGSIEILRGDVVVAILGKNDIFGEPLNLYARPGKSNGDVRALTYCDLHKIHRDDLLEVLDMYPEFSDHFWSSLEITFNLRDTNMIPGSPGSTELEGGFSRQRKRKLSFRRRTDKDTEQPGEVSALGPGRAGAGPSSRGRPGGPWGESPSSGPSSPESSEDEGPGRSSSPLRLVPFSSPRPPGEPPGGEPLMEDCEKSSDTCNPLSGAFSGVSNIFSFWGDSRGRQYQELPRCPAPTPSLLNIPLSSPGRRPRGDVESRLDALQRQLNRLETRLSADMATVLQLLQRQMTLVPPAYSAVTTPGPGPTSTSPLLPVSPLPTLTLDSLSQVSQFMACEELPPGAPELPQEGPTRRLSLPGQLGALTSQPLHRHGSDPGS

CYP1A2 = target: T2, CYP1A2 (Homo sapiens, UniProt P05177); experiment: Inhibition of CYP1A2 (unknown origin) at 3 uM relative to control; assay type: ADME
T2 sequence (P05177 whole entry): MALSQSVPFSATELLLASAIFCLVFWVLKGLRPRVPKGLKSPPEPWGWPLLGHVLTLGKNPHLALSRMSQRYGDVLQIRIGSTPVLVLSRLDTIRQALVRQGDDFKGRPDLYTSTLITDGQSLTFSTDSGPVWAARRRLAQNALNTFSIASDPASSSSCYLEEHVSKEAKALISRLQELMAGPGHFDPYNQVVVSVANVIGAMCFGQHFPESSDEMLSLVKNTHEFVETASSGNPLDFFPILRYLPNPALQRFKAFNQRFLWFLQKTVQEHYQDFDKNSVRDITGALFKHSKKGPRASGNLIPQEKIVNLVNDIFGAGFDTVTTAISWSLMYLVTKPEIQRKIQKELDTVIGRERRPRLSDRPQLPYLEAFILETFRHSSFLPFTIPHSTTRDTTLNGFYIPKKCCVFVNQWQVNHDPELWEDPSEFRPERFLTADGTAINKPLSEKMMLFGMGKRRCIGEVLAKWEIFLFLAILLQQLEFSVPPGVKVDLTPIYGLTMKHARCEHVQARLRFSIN

CYP2C8 = target: T3, CYP2C8 (Homo sapiens, UniProt P10632); experiment: Inhibition of CYP2C8 (unknown origin) at 3 uM relative to control; assay type: ADME
T3 sequence (P10632 whole entry): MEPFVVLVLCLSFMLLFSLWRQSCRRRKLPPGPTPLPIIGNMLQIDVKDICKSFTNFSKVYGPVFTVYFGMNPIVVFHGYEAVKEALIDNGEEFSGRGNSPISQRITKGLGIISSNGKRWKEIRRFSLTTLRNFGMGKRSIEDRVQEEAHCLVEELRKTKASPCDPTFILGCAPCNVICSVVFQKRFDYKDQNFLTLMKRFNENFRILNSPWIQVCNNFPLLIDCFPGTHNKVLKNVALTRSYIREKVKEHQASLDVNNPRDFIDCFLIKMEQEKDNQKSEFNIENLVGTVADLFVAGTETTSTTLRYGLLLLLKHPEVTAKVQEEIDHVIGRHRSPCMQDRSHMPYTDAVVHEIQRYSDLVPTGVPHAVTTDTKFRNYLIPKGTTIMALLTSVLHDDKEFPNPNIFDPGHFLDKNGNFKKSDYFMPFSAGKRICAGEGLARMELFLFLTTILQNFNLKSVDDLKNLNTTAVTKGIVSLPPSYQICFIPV

CYP2C9 = CYP2C9 (Homo sapiens, UniProt P11712); experiment: Inhibition of CYP2C9 (unknown origin) at 3 uM relative to control; assay type: ADME
Chain of CYP2C9 (P11712 whole entry): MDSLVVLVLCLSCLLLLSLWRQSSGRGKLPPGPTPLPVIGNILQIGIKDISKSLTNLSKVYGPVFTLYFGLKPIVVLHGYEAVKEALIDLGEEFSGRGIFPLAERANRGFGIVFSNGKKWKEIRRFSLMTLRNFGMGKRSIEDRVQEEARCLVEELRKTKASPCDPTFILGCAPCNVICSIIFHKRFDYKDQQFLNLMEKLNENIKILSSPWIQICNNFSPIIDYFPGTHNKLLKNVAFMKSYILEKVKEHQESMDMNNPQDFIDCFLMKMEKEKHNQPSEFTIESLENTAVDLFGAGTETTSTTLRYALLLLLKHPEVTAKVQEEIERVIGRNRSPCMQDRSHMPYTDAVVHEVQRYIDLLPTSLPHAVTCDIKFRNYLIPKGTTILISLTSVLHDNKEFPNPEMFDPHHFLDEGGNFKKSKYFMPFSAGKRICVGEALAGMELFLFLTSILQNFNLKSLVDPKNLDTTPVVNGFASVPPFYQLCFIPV

CYP2D6 = CYP2D6 (Homo sapiens, UniProt P10635); experiment: Inhibition of CYP2D6 (unknown origin) at 3 uM relative to control; assay type: ADME
Chain of CYP2D6 (P10635 whole entry): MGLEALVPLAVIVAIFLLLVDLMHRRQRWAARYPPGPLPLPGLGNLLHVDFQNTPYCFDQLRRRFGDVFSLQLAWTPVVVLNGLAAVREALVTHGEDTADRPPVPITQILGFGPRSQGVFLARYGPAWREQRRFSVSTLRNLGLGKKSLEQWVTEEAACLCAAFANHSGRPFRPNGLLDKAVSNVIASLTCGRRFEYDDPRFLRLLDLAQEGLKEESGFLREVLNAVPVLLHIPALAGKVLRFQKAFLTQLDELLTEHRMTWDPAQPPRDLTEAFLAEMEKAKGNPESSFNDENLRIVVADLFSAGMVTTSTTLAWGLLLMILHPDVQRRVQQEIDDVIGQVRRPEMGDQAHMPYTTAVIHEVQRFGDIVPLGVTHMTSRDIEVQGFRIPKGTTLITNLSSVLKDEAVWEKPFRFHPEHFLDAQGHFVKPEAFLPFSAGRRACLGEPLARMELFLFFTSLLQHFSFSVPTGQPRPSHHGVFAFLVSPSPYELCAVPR

CYP3A4 = CYP3A4 (Homo sapiens, UniProt P08684); experiment: Inhibition of CYP3A4 (unknown origin) at 3 uM relative to control; assay type: ADME
Chain of CYP3A4 (P08684 whole entry): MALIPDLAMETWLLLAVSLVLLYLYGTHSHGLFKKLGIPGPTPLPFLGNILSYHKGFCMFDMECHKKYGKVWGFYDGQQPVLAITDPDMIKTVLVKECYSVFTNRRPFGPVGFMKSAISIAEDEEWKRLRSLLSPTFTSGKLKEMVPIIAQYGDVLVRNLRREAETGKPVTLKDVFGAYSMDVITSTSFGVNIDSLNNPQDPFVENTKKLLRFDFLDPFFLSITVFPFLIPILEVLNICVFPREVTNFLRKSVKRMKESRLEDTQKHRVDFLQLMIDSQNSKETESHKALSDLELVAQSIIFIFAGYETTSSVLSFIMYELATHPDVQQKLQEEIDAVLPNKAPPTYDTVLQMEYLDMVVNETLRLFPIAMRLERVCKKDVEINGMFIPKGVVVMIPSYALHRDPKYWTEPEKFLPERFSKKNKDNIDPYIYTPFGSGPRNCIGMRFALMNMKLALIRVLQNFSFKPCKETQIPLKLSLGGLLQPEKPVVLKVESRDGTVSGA

PDE3A1 = experiment: Inhibition of PDE3A1 (unknown origin); assay type: toxicity, Homo sapiens
[6] = Drug metabolism in human hepatocytes assessed as oxidation by LC/MS/MS analysis; assay type: ADME, cell-based, Hepatocyte
[7] = Drug metabolism in human hepatocytes assessed as glucuronidation by LC/MS/MS analysis; assay type: ADME, cell-based, Hepatocyte
[8] = Lipophilicity, logD of compound; assay type: physicochemical; conditions: octanol/water

| SMILES | hepatocyte CLint [1] [µL/min/1e6 cells] | EC50 [2] [nM] | Papp [3] [×10⁻⁶ cm/s] | also measured |
| --- | --- | --- | --- | --- |
| N#Cc1ccc(COc2nc(N3CCC4(CC3)C[C@@H]4c3nc4ccc(C(=O)O)cc4n3C[C@@H]3CCO3)c(F)cc2F)c(F)c1 | 37 | 4.1 | 5 |  |
| Cn1c(CC2CCN(c3nc(OCc4ccc(Cl)cc4F)ncc3F)CC2)nc2ccccc21 |  |  |  | Activity [4]: 40% |
| N#Cc1ccc(COc2nc(N3CCC4(CC3)C[C@@H]4c3nc4ccc(C(=O)O)cc4n3C[C@@H]3CCO3)ccc2F)c(F)c1 | 20 | 14 | 5 |  |
| Cn1c(CC2CCN(c3nc(OCc4ccc(Cl)cc4F)ncc3F)CC2)nc2ncccc21 |  |  |  | Activity [4]: 75% |
| N#Cc1ccc(COc2ccc(F)c(N3CCC4(CC3)C[C@@H]4c3nc4ccc(C(=O)O)cc4n3C[C@@H]3CCO3)n2)c(F)c1 | 32 | 5.8 | 6 | Ki [5]: > 40000 nM; inhibition at 3 µM (CYP1A2): < 20%; inhibition at 3 µM (CYP2C8): 60%; inhibition at 3 µM (CYP2C9): < 20%; inhibition at 3 µM (CYP2D6): < 20%; inhibition at 3 µM (CYP3A4): < 20%; IC50 (PDE3A1): 409 nM; Drug metabolism [6]: Metabolite_Detected; Drug metabolism [7]: Metabolite_Detected; logD [8]: 2.3 |
| N#Cc1ccc(COc2cccc(C3CCN(Cc4nc5ccc(C(=O)O)cc5n4C[C@@H]4CCO4)CC3)n2)c(F)c1 [DANUGLIPRON] | 7 |  | 10 |  |
| O=C(O)c1ccc2nc([C@H]3CC34CCN(c3nccc(OCc5ccc(Cl)cc5F)n3)CC4)n(C[C@@H]3CCO3)c2c1 | 30 | 32 | 2 |  |
| O=C(O)c1ccc2nc([C@H]3CC34CCN(c3nc(OCc5ccc(Cl)cc5F)ncc3F)CC4)n(C[C@H]3CCO3)c2c1 | 21 |  | 5 |  |
| Cn1c(CN2CCC(c3nc(OCc4ccc(Cl)cc4F)ncc3F)CC2)nc2ccccc21 |  |  |  | Activity [4]: 70% |
| O=C(O)c1ccc2nc([C@H]3CC34CCN(c3nc(OCc5ccc(Cl)cc5F)ncc3F)CC4)n(C[C@@H]3CCO3)c2n1 | 14 | 15 | 7 |  |
| N#Cc1ccc(COc2cccc(N3CCC4(CC3)C[C@@H]4c3nc4ccc(C(=O)O)cc4n3C[C@@H]3CCO3)n2)c(F)c1 | 23 | 15 | 7 |  |
| O=C(O)c1ccc2nc([C@H]3CC34CCN(c3ncc(F)c(OCc5ccc(Cl)cc5F)n3)CC4)n(C[C@@H]3CCO3)c2c1 | 27 | 19 | 3 |  |
